Our source for the Inhibition of PAI-1 in the first S2251 chromogenic substrate assay values is patent US5700804A, “Pharmaceutical compounds” (Xenova Limited, priority 1992, dated 1997).

In the assay the target is PAI-1 (Homo sapiens, UniProt P05121). Kind of assay: PAI chromogenic substrate assay (first S2251 assay, tPA/plasminogen system). The class given is biochemical. The method in brief:
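Compound preincubated with PAI-1, then added to a tPA/plasminogen system; residual tPA activity generates plasmin, which cleaves chromogenic substrate S2251, releasing p-nitroaniline read at 405 nm.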

PAI-1, sequence (P05121 24-402): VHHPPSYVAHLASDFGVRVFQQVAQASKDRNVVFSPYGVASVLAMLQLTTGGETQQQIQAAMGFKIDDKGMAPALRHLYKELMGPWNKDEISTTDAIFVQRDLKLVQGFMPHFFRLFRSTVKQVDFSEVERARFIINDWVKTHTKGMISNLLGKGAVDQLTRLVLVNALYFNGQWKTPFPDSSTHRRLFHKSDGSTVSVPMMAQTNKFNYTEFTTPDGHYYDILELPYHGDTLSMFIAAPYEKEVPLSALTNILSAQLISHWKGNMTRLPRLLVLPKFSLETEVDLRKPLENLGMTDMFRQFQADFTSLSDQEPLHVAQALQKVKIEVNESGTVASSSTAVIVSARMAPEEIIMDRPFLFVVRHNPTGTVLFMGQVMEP

For `COC(=O)CCCC(=O)NCc1ccc(/C=c2\[nH]c(=O)/c(=C/c3ccccc3)[nH]c2=O)cc1` [Compound 94, 4-(4-[(3Z,6Z)-6-Benzylidene-2,5-dioxopiperazin-3-ylidene]methylbenzylcarbamoyl) butanoic acid, methyl ester], the Inhibition of PAI-1 in the first S2251 chromogenic substrate assay runs as follows: (Concentration 6.25 μm) 43%; (Concentration 12.5 μm) 76%; (Concentration 25 μm) 83%; (Concentration 50 μm) 62%; (Concentration 100 μm) 31%.

In the case of `COC(=O)Nc1ccc(/C=c2\[nH]c(=O)/c(=C/c3ccc(OC)cc3)[nH]c2=O)cc1` [Compound 83, (3Z,6Z)-3-(4-Methoxybenzylidene)-6-(4-methoxycarbonylaminobenzylidene)-2,5-piperazinedione], the Inhibition of PAI-1 in the first S2251 chromogenic substrate assay runs as follows: (Concentration 12.5 μm) 1%; (Concentration 25 μm) 1%; (Concentration 50 μm) 1%; (Concentration 100 μm) 56%.

Consider `COc1ccc(/C=c2\[nH]c(=O)/c(=C/c3ccc(O)cc3Cl)[nH]c2=O)cc1` [Compound 84, (3Z,6Z)-3-(2-Chloro-4-hydroxybenzylidene)-6-(4-methoxybenzylidene)-2,5-piperazinedione], for which the Inhibition of PAI-1 in the first S2251 chromogenic substrate assay amounted to 1% (Concentration 6.25 μm); 2% (Concentration 12.5 μm); 10% (Concentration 25 μm); 38% (Concentration 50 μm); 52% (Concentration 100 μm).

Turning to `O=c1[nH]/c(=C\c2cccc(O)c2)c(=O)[nH]/c1=C\c1ccccc1` [Compound 33, (3Z,6Z)-6-Benzylidene-3-(3-hydroxybenzylidene)-2,5-piperazinedione], the Inhibition of PAI-1 in the first S2251 chromogenic substrate assay is, setting by setting: (Concentration 6.25 μm) 0%; (Concentration 12.5 μm) 1%; (Concentration 25 μm) 1%; (Concentration 50 μm) 3%; (Concentration 100 μm) 56%.

On to `COc1ccc(/C=c2\[nH]c(=O)/c(=C/c3cccc(CSC(C)=O)c3)[nH]c2=O)cc1` [Compound 63, (3Z,6Z)-3-(4-Methoxybenzylidene)-6-(3-thioacetoxymethylbenzylidene)-2,5-piperazinedione], for which the Inhibition of PAI-1 in the first S2251 chromogenic substrate assay runs as follows: (Concentration 12.5 μm) 36%; (Concentration 25 μm) 44%; (Concentration 50 μm) 70%; (Concentration 100 μm) 69%.

Consider `O=c1[nH]/c(=C\c2ccc(O)cc2Cl)c(=O)[nH]/c1=C\c1ccccc1` [Compound 85, (3Z,6Z)-6-Benzylidene-3-(2-chloro-4-hydroxybenzylidene)-2,5-piperazinedione], for which the Inhibition of PAI-1 in the first S2251 chromogenic substrate assay was 13% (Concentration 6.25 μm); 27% (Concentration 12.5 μm); 43% (Concentration 25 μm); 49% (Concentration 50 μm); 35% (Concentration 100 μm).

`CC(=O)Oc1ccc(/C=c2\[nH]c(=O)/c(=C/c3ccccc3)[nH]c2=O)cc1` [Compound 23, (3Z,6Z)-3-(4-Acetoxybenzylidene)-6-benzylidene-2,5-piperazinedione]: the Inhibition of PAI-1 in the first S2251 chromogenic substrate assay came out at 0% (Concentration 7.5 μm), 0% (Concentration 15 μm), 17% (Concentration 30 μm) and 65% (Concentration 60 μm).

In the case of `CN(C)c1ccc(/C=c2\[nH]c(=O)/c(=C/c3ccccc3)[nH]c2=O)c2ccccc12` [Compound 89], the Inhibition of PAI-1 in the first S2251 chromogenic substrate assay worked out at 7% (Concentration 6.25 μm); 40% (Concentration 12.5 μm); 66% (Concentration 25 μm); 55% (Concentration 50 μm); 63% (Concentration 100 μm).

Turning to `CC(=O)SCc1ccc(/C=c2\[nH]c(=O)/c(=C/c3ccccc3)[nH]c2=O)cc1` [Compound 76, (3Z,6Z)-6-Benzylidene-3-(4-thioacetoxymethylbenzylidene)-2,5-piperazinedione], the Inhibition of PAI-1 in the first S2251 chromogenic substrate assay by setting is: (Concentration 6.25 μm) 2%; (Concentration 12.5 μm) 5%; (Concentration 25 μm) 50%; (Concentration 50 μm) 75%; (Concentration 100 μm) 66%.

In the case of `COc1ccc(/C=c2\[nH]c(=O)/c(=C/c3ccc(CS(C)(=O)=O)cc3)[nH]c2=O)cc1` [Compound 60, (3Z,6Z)-3-(4-Methoxybenzylidene)-6-(4-methylsulfonylmethylbenzylidene)-2,5-piperazinedione], the Inhibition of PAI-1 in the first S2251 chromogenic substrate assay reads like this: (Concentration 12.5 μm) 1%; (Concentration 25 μm) 25%; (Concentration 50 μm) 52%; (Concentration 100 μm) 62%.

With `COc1ccc(/C=c2\[nH]c(=O)/c(=C/c3ccc(OC(C)=O)cc3)[nH]c2=O)cc1` [Compound 37, (3Z,6Z)-3-(4-Acetoxybenzylidene)-6-(4-methoxybenzylidene)-2,5-piperazinedione], the Inhibition of PAI-1 in the first S2251 chromogenic substrate assay by setting is: (Concentration 25 μm) 2%; (Concentration 50 μm) 19%; (Concentration 100 μm) 69%.

Take `COc1ccc(/C=c2\[nH]c(=O)/c(=C/c3ccc(OC)c(OC)c3)[nH]c2=O)cc1` [Compound 91, (3Z,6Z)-3-(3,4-Dimethoxybenzylidene)-6-(4-methoxybenzylidene)-2,5-piperazinedione]: the Inhibition of PAI-1 in the first S2251 chromogenic substrate assay amounted to 0% (Concentration 6.25 μm); 0% (Concentration 12.5 μm); 3% (Concentration 25 μm); 72% (Concentration 50 μm); 50% (Concentration 100 μm).

`CCOc1ccc(/C=c2\[nH]c(=O)/c(=C/c3ccccc3)[nH]c2=O)cc1` [Compound 25, (3Z,6Z)-6-Benzylidene-3-(4-ethoxybenzylidene)-2,5-piperazinedione] gave an Inhibition of PAI-1 in the first S2251 chromogenic substrate assay (Concentration 6.25 μm) of 0%; an Inhibition of PAI-1 in the first S2251 chromogenic substrate assay (Concentration 12.5 μm) of 0%; an Inhibition of PAI-1 in the first S2251 chromogenic substrate assay (Concentration 25 μm) of 1%; an Inhibition of PAI-1 in the first S2251 chromogenic substrate assay (Concentration 50 μm) of 25%; an Inhibition of PAI-1 in the first S2251 chromogenic substrate assay (Concentration 100 μm) of 52%.

As to `COC(=O)CCCCOc1ccc(/C=c2\[nH]c(=O)/c(=C/c3ccccc3)[nH]c2=O)cc1` [Compound 96, 5-[4-((3Z,6Z)-6-Benzylidene-2,5-dioxopiperazin-3-ylidene)methylphenoxy]pentanoic acid, methyl ester], the Inhibition of PAI-1 in the first S2251 chromogenic substrate assay (Concentration 6.25 μm) was determined as 5%; the Inhibition of PAI-1 in the first S2251 chromogenic substrate assay (Concentration 12.5 μm) is 29%; the Inhibition of PAI-1 in the first S2251 chromogenic substrate assay (Concentration 25 μm) came out at 47%; the Inhibition of PAI-1 in the first S2251 chromogenic substrate assay (Concentration 50 μm) amounted to 75%; the Inhibition of PAI-1 in the first S2251 chromogenic substrate assay (Concentration 100 μm) came out at 77%.

`CC(=O)Nc1ccc(/C=c2\[nH]c(=O)/c(=C/c3ccc(COC(C)=O)cc3)[nH]c2=O)cc1` [Compound 58, (3Z,6Z)-3-(4-Acetamidobenzylidene)-6-(4-acetoxymethylbenzylidene)-2,5-piperazinedione]: the Inhibition of PAI-1 in the first S2251 chromogenic substrate assay (Concentration 12.5 μm) was 1%, the Inhibition of PAI-1 in the first S2251 chromogenic substrate assay (Concentration 25 μm) was 1%, the Inhibition of PAI-1 in the first S2251 chromogenic substrate assay (Concentration 50 μm) was determined as 31% and the Inhibition of PAI-1 in the first S2251 chromogenic substrate assay (Concentration 100 μm) stood at 60%.

On to `CC(C)(C)OC(=O)NCc1ccc(/C=c2\[nH]c(=O)/c(=C/c3ccccc3)[nH]c2=O)cc1` [Compound 66], for which the Inhibition of PAI-1 in the first S2251 chromogenic substrate assay (Concentration 12.5 μm) was 2%, the Inhibition of PAI-1 in the first S2251 chromogenic substrate assay (Concentration 25 μm) worked out at 46%, the Inhibition of PAI-1 in the first S2251 chromogenic substrate assay (Concentration 50 μm) was 70% and the Inhibition of PAI-1 in the first S2251 chromogenic substrate assay (Concentration 100 μm) is 85%.

As for `O=c1[nH]c(=Cc2ccccc2)c(=O)[nH]c1=Cc1ccccc1` [Compound 22, 3,6-Dibenzylidene-2,5-piperazinedione], the Inhibition of PAI-1 in the first S2251 chromogenic substrate assay runs as follows: (Concentration 6.25 μm) 0%; (Concentration 12.5 μm) 0%; (Concentration 25 μm) 1%; (Concentration 50 μm) 2%; (Concentration 100 μm) 61%.

The compound `COc1ccc(/C=c2\[nH]c(=O)/c(=C/c3ccccc3C(F)(F)F)[nH]c2=O)cc1` [Compound 70, (3Z,6Z)-3-(4-Methoxybenzylidene)-6-(2-trifluoromethylbenzylidene)-2,5-piperazinedione] displayed an Inhibition of PAI-1 in the first S2251 chromogenic substrate assay (Concentration 12.5 μm) of 4%, an Inhibition of PAI-1 in the first S2251 chromogenic substrate assay (Concentration 25 μm) of 21%, an Inhibition of PAI-1 in the first S2251 chromogenic substrate assay (Concentration 50 μm) of 78% and an Inhibition of PAI-1 in the first S2251 chromogenic substrate assay (Concentration 100 μm) of 94%.

Regarding `O=c1[nH]/c(=C\c2cccc(CS)c2)c(=O)[nH]/c1=C\c1ccccc1` [Compound 64, (3Z,6Z)-6-Benzylidene-3-(3-mercaptomethylbenzylidene)-2,5-piperazinedione], the Inhibition of PAI-1 in the first S2251 chromogenic substrate assay (Concentration 7.5 μm) amounted to 17%, the Inhibition of PAI-1 in the first S2251 chromogenic substrate assay (Concentration 15 μm) was 63%, the Inhibition of PAI-1 in the first S2251 chromogenic substrate assay (Concentration 30 μm) is 87% and the Inhibition of PAI-1 in the first S2251 chromogenic substrate assay (Concentration 60 μm) is 100%.

For the compound `CC(=O)Nc1ccc(/C=c2\[nH]c(=O)/c(=C/c3ccccc3Br)[nH]c2=O)cc1` [Compound 79, (3Z,6Z)-6-(4-Acetamidobenzylidene)-3-(2-bromobenzylidene)-2,5-piperazinedione], the Inhibition of PAI-1 in the first S2251 chromogenic substrate assay (Concentration 6.25 μm) came to 1%; the Inhibition of PAI-1 in the first S2251 chromogenic substrate assay (Concentration 12.5 μm) came to 2%; the Inhibition of PAI-1 in the first S2251 chromogenic substrate assay (Concentration 25 μm) worked out at 27%; the Inhibition of PAI-1 in the first S2251 chromogenic substrate assay (Concentration 50 μm) was 55%; the Inhibition of PAI-1 in the first S2251 chromogenic substrate assay (Concentration 100 μm) was 42%.
